Measured values as given in patent US12447141B2, “Liquid tasimelteon formulations and methods of use thereof” (Vanda Pharmaceuticals Inc., priority 2019, dated 2025).
≈ marks a conversion by molar mass, not a printed value.

Tests used:
[1] = Solubility and pH of saturated solution; assay type: physicochemical; conditions: water
[2] = Chemical / storage stability of tasimelteon and its suspensions; assay type: physicochemical; conditions: formation of three degradation products
Procedure: Ascorbic acid preferentially undergoes oxidation, thereby preventing oxidation of tasimelteon, but also imparts a yellow color to the suspension on storage, especially when stored at 40° C./75% RH for >3 months, which is the accelerated storage condition for products stored at room temperature (6 months of satisfactory stability is necessary at 40° C./75% RH in order to justify long-term storage at room temperature/25° C./60% RH). Because of the color change from white/off-white to yellow after 3 months storage at 40° C./75% RH, it is necessary to store the suspension at 5° C., for which the accelerated storage condition is 25° C./60% RH and up to 6 months of satisfactory stability data at this storage condition are available (i.e., color change is from white/off-white to slightly yellow).
Short-term stability studies can be undertaken under storage conditions at (1) 5±3° C., (2) 25±2° C. (at 60±5% relative humidity), and 40±2° C. (at 75±5% relative humidity) for one to three months. Under such conditions, total impurities as determined by HPLC for pharmaceutically acceptable compositions are, for example, not more than 2.0 percent by weight or not more than 0.5 percent by weight with respect to known impurities, and not more than 0.2 percent by weight with respect to unspecified impurities.

[3] = known in the art, cited from earlier work
[4] = test system: Smith-Magenis Syndrome (SMS); test: Study of efficacy of tasimelteon in disorders including SMS, once daily before bedtime; assay type: in vivo, pediatric patients
Procedure: (§1) One common symptom of SMS is a chronically disrupted sleep pattern, which is found at all ages. In a study to determine the efficacy of tasimelteon in the treatment of disorders, including SMS, oral (20 mg capsule or 4 mg/mL suspension) and intravenous (0.4 mg/mL) formulations were administered once per day before bedtime to pediatric patients 3-17 years old.
Treatment efficacy was assessed by improvements in nighttime sleep (i.e., reduced nighttime activity interrupting the sleep period, improved sleep efficiency, reduced variability in sleep onset, reduced variability in morning awakenings, and/or improved sleep quality), reduced daytime sleepiness, reduced behavioral problems (i.e., reduced aggressive behavior, reduced temper tantrums, reduced hyperactivity, and/or reduced attention deficits).

[5] = Apparent clearance in the pediatric study; assay type: in vivo, pediatric patients; conditions: children with body mass greater than 28 kg
Procedure: as §1

solubility [1]	oxidative degradation [2]	apparent clearance [5]	Structure (SMILES)	solubility in organic solvents ([3]; 95% ethanol, methanol, acetonitrile, ethyl acetate, isopropanol, polyethylene glycols (PEG-300 and PEG-400))	effect of pH on aqueous solubility [3]	native pH of a saturated solution in water ([3]; saturated solution in water)	solubility in water ([3]; water)	consistently effective dose ([4]; patients with body mass greater than 28 kg)	consistently effective dose ([4]; patients with body mass of 28 kg or less)
~200 mg/mL (≈ 1100 mM)			OC[C@@H](O)[C@@H](O)[C@H](O)[C@H](O)CO [mannitol]						
~1 mg/mL (≈ 4.08 mM)	susceptible to oxidative degradation	constant and similar to that of adults	CCC(=O)NC[C@@H]1C[C@H]1c1cccc2c1CCO2 [tasimelteon, trans-N-[[2-(2,3-dihydrobenzofuran-4-yl)cycloprop-1-yl]methyl]propanamide]	highly soluble	substantially unaffected by pH	8.5	poorly soluble	20 mg	0.7 mg/kg
